Patent US20190328667A1, “DRUG-POLYMER PARTICLES WITH SUSTAINED RELEASE PROPERTIES” (University of Washington, priority 2016, published 2019)

Key:
[1] = cited from earlier work
[2] = Maximum lopinavir concentration in suspension after thermal treatment (LC-MS/MS); type: physicochemical; details: after thermal treatment (melt-quench), normalized to lopinavir content
Protocol: Lopinavir in suspension was measured in μg/mL.

| Maximum drug concentration in suspension [2] [µg/mL] | SMILES | Log D [1] |
| --- | --- | --- |
|  | Nc1ccn([C@@H]2CS[C@H](CO)O2)c(=O)n1 [Lamivudine, lamivudine] | −1.1 |
| 322.00 | Cc1cccc(C)c1OCC(=O)N[C@@H](Cc1ccccc1)[C@@H](O)C[C@H](Cc1ccccc1)NC(=O)[C@H](C(C)C)N1CCCNC1=O [Lopinavir (amorphous), lopinavir] |  |
|  | Cc1cccc(C)c1OCC(=O)N[C@@H](Cc1ccccc1)[C@@H](O)C[C@H](Cc1ccccc1)NC(=O)[C@H](C(C)C)N1CCCNC1=O [Lopinavir, lopinavir] | 4.6 |
|  | CC(C)c1nc(CN(C)C(=O)N[C@H](C(=O)N[C@@H](Cc2ccccc2)C[C@H](O)[C@H](Cc2ccccc2)NC(=O)OCc2cncs2)C(C)C)cs1 [Ritonavir, ritonavir] | 5.7 |
